Data as given in ChEMBL document CHEMBL1150435, “Inhibition of antennal esterases of the egyptian armyworm Spodoptera littoralis by trifluoromethyl ketones” (Bioorg Med Chem Lett, 1993).

Key:
Spodoptera littoralis = assay: Tested for its ability to inhibit antennal esterases of Spodoptera littoralis without pre-incubation at 63 uM concentration
[1] = Tested for its ability to inhibit antennal esterases of Spodoptera littoralis without pre-incubation
[2] = Compound was tested for competitive inhibition of antennal esterases of Spodoptera littoralis
[3] = Tested for the ability to inhibit antennal esterases of Spodoptera littoralis with pre-incubation

SMILES | inhibition (Spodoptera littoralis) | IC50 [1] | Ki [2] | IC50 [3]
CCCCCCCCCCCCCCCCCC(=O)C(F)(F)F | 44% |  |  | 
CCCCCCCCCCCCC(=O)C(F)(F)F |  | 10.6 µM | 29.8 µM | 1.16 µM
CCCCCCCCCCCCCCC(=O)C(F)(F)F |  |  |  | 18.4 µM
O=C(CCc1ccccc1)C(F)(F)F | 43% |  |  | 
O=C(c1cccc2ccccc12)C(F)(F)F | 38% |  |  | 
O=C(c1ccccc1)C(F)(F)F | 31% |  |  | 40.7 µM
O=C(c1ccc2ccccc2c1)C(F)(F)F |  | 7.9 µM | 249 µM | 11.4 µM
CCCCCCCCCCC(=O)C(F)(F)F |  |  |  | 19.3 µM
CCCCCCCCSCC(=O)C(F)(F)F |  | 3.7 µM | 25.1 µM | 0.55 µM
O=C(Cc1ccccc1)C(F)(F)F | 36% |  |  | 
CCCCCCCCCCCCCC(=O)C(F)(F)F |  | 11 µM |  | 4.4 µM
CCCCCCCCCCCCCCCCC(=O)C(F)(F)F | 50% |  |  | 
